Test system: Geobacillus stearothermophilus spores
Assay: Resistance of self-contained biological indicators to hydrogen peroxide sterilization, growth readout by pH colour change (GRO+)
Format: cell-based
Protocol: PET film (.09 mm thick) was coated with colloidal silica as described in International Publication No. WO2014/189716, which is incorporated herein by reference in its entirety. […] Separate aqueous spore coating solutions were prepared as described in Example 1 with the amino acids shown in table 4 present in the coating solutions. Two microliter aliquots (containing at least 10^6 spores) of the respective spore coating solutions were deposited onto the silica-coated PET film, forming a series of spaced-apart spots on the film. The spore coated films were dried in a 60° C. incubator for 12 minutes. Circular discs (hereinafter, “coated carriers”) of the PET film, each disc including one of the dried spots, were punched out and were used to assemble self-contained biological indicators (BI) similar to that shown in FIG. 1 of International Publication No. WO2014/189716. The coated carriers described above were placed into the “spore carrier 135” shown in FIG. 1 of International Publication No. WO2014/189716. Each self-contained BI comprised a polycarbonate outer container, a breaker, a cap, and a cap filter. Disposed inside the outer container were a coated carrier along with an ampoule media containing the nutrient medium from 3M ATTEST 1292 Rapid Readout Biological Indicators plus 5g/L methionine (as described in Example 1).
The self-contained biological indicators with different concentrations of additives (Table 4) were exposed to hydrogen peroxide sterilization in STERRAD NX sterilizer. The sterilization processes were run by manually injecting 1.0 ml of 59% hydrogen peroxide per load, unless specified otherwise. The exposure time was varied to determine the resistance profile of self-contained BIs with different additive formulations. The BIs were activated by pressing down the cap to break the media ampoule. The activated BIs were placed in a bench-top fluorimeter (3M Company, St. Paul, Minn.) to detect fluorescence.
A self-contained BI that is not completely inactivated (i.e., not all of the spores are killed by the sterilization process) will resume cellular functions upon activation of the BI. The production of glucosidase enzyme by surviving spores is an indication that at least one of the spores have not been inactivated (killed) by the sterilization process. The glucosidase enzyme cleaves the 4-methylumbelliferyl-glucoside (MUG) releasing the fluorescent methyl umbelliferone, which is detected using a bench-top fluorimeter. Growth and proliferation of spores in the self-contained biological indicator can also be detected by a pH change, which may be detected by a color change of the pH indicator in the growth medium.
Self-contained biological indicators were prepared (with various additives listed in table 4) as described above in this Example. For each additive tested, a lower range and a higher range was used as a preliminary screen to identify additives modulated the resistance of the spores to the sterilant. Five self-contained BIs representing each condition were exposed to hydrogen peroxide sterilization in STERRAD NX sterilizer. The sterilization processes used a constant injection volume (1.0 ml of 59% hydrogen peroxide) and various times (e.g., 20 seconds to 7 minutes) of exposure to the hydrogen peroxide. The self-contained BIs were activated after exposure to the sterilization process and were monitored for fluorescence using a bench-top fluorimeter) and pH based color change (visually). […]
Self-contained biological indicators (with various additives listed in table 5) were prepared as described in Example 2. The self-contained biological indicators were exposed to hydrogen peroxide in a STERRAD NX sterilizer as described in Example 2. The self-contained BIs were activated after exposure to the sterilization process and were monitored for fluorescence using a bench-top fluorimeter and pH based color change (visually).

N[C@@H](Cc1c[nH]cn1)C(=O)O [L-histidine]
sensitivity of the spores to the damaging/lethal effects of the sterilization process relative to the control with no additives (Example 3 (Table 5), fluorescence and growth readouts): increased sensitivity | percentage of self-contained biological indicators positive for growth (GRO+) (Table 4, modulator 0.01 weight percent in spore coating solution, H2O2 exposure 30 sec.): 80% | percentage of self-contained biological indicators positive for growth (GRO+) (Table 4, modulator 0.01 weight percent in spore coating solution, H2O2 exposure 60 sec.): 0% | percentage of self-contained biological indicators positive for growth (GRO+) (Table 4, modulator 0.01 weight percent in spore coating solution, H2O2 exposure 90 sec.): 0% | percentage of self-contained biological indicators positive for growth (GRO+) (Table 4, modulator 0.01 weight percent in spore coating solution, H2O2 exposure 3 min.): 0% | percentage of self-contained biological indicators positive for growth (GRO+) (Table 4, modulator 0.01 weight percent in spore coating solution, H2O2 exposure 7 min.): 0% | percentage of self-contained biological indicators positive for growth (GRO+) (Table 4, modulator 0.1 weight percent in spore coating solution, H2O2 exposure 30 sec.): 0% | percentage of self-contained biological indicators positive for growth (GRO+) (Table 4, modulator 0.1 weight percent in spore coating solution, H2O2 exposure 60 sec.): 0% | percentage of self-contained biological indicators positive for growth (GRO+) (Table 4, modulator 0.1 weight percent in spore coating solution, H2O2 exposure 90 sec.): 0% | percentage of self-contained biological indicators positive for growth (GRO+) (Table 4, modulator 0.1 weight percent in spore coating solution, H2O2 exposure 3 min.): 0% | percentage of self-contained biological indicators positive for growth (GRO+) (Table 4, modulator 0.1 weight percent in spore coating solution, H2O2 exposure 7 min.): 0% | percentage of self-contained biological indicators positive for growth (GRO+) (Table 5, modulator 0.05 weight percent in spore coating solution, H2O2 exposure 20 sec.): 100% | percentage of self-contained biological indicators positive for growth (GRO+) (Table 5, modulator 0.05 weight percent in spore coating solution, H2O2 exposure 30 sec.): 100% | percentage of self-contained biological indicators positive for growth (GRO+) (Table 5, modulator 0.05 weight percent in spore coating solution, H2O2 exposure 60 sec.): 0% | percentage of self-contained biological indicators positive for growth (GRO+) (Table 5, modulator 0.05 weight percent in spore coating solution, H2O2 exposure 90 sec.): 0% | percentage of self-contained biological indicators positive for growth (GRO+) (Table 5, modulator 0.05 weight percent in spore coating solution, H2O2 exposure 3 min.): 0% | percentage of self-contained biological indicators positive for growth (GRO+) (Table 5, modulator 0.05 weight percent in spore coating solution, H2O2 exposure 7 min.): 0% | percentage of self-contained biological indicators positive for growth (GRO+) (Table 5, modulator 0.1 weight percent in spore coating solution, H2O2 exposure 20 sec.): 100% | percentage of self-contained biological indicators positive for growth (GRO+) (Table 5, modulator 0.1 weight percent in spore coating solution, H2O2 exposure 30 sec.): 33% | percentage of self-contained biological indicators positive for growth (GRO+) (Table 5, modulator 0.1 weight percent in spore coating solution, H2O2 exposure 60 sec.): 0% | percentage of self-contained biological indicators positive for growth (GRO+) (Table 5, modulator 0.1 weight percent in spore coating solution, H2O2 exposure 90 sec.): 0% | percentage of self-contained biological indicators positive for growth (GRO+) (Table 5, modulator 0.1 weight percent in spore coating solution, H2O2 exposure 3 min.): 0% | percentage of self-contained biological indicators positive for growth (GRO+) (Table 5, modulator 0.1 weight percent in spore coating solution, H2O2 exposure 7 min.): 0% | percentage of self-contained biological indicators positive for growth (GRO+) (Table 5, modulator 0.2 weight percent in spore coating solution, H2O2 exposure 20 sec.): 100% | percentage of self-contained biological indicators positive for growth (GRO+) (Table 5, modulator 0.2 weight percent in spore coating solution, H2O2 exposure 30 sec.): 0% | percentage of self-contained biological indicators positive for growth (GRO+) (Table 5, modulator 0.2 weight percent in spore coating solution, H2O2 exposure 60 sec.): 0% | percentage of self-contained biological indicators positive for growth (GRO+) (Table 5, modulator 0.2 weight percent in spore coating solution, H2O2 exposure 90 sec.): 0% | percentage of self-contained biological indicators positive for growth (GRO+) (Table 5, modulator 0.2 weight percent in spore coating solution, H2O2 exposure 3 min.): 0% | percentage of self-contained biological indicators positive for growth (GRO+) (Table 5, modulator 0.2 weight percent in spore coating solution, H2O2 exposure 7 min.): 0% | percentage of self-contained biological indicators positive for growth (GRO+) (Table 5, modulator 0.4 weight percent in spore coating solution, H2O2 exposure 20 sec.): 100% | percentage of self-contained biological indicators positive for growth (GRO+) (Table 5, modulator 0.4 weight percent in spore coating solution, H2O2 exposure 30 sec.): 0% | percentage of self-contained biological indicators positive for growth (GRO+) (Table 5, modulator 0.4 weight percent in spore coating solution, H2O2 exposure 60 sec.): 0% | percentage of self-contained biological indicators positive for growth (GRO+) (Table 5, modulator 0.4 weight percent in spore coating solution, H2O2 exposure 90 sec.): 0% | percentage of self-contained biological indicators positive for growth (GRO+) (Table 5, modulator 0.4 weight percent in spore coating solution, H2O2 exposure 3 min.): 0% | percentage of self-contained biological indicators positive for growth (GRO+) (Table 5, modulator 0.4 weight percent in spore coating solution, H2O2 exposure 7 min.): 0% | percentage of self-contained biological indicators positive for growth (GRO+) (Table 5, modulator 0.8 weight percent in spore coating solution, H2O2 exposure 20 sec.): 33% | percentage of self-contained biological indicators positive for growth (GRO+) (Table 5, modulator 0.8 weight percent in spore coating solution, H2O2 exposure 30 sec.): 0% | percentage of self-contained biological indicators positive for growth (GRO+) (Table 5, modulator 0.8 weight percent in spore coating solution, H2O2 exposure 60 sec.): 0% | percentage of self-contained biological indicators positive for growth (GRO+) (Table 5, modulator 0.8 weight percent in spore coating solution, H2O2 exposure 90 sec.): 0% | percentage of self-contained biological indicators positive for growth (GRO+) (Table 5, modulator 0.8 weight percent in spore coating solution, H2O2 exposure 3 min.): 0% | percentage of self-contained biological indicators positive for growth (GRO+) (Table 5, modulator 0.8 weight percent in spore coating solution, H2O2 exposure 7 min.): 0%
